Reference: patent US12473536B2, “Cultured meat product with genetically modified cells” (Trustees of Tufts College, priority 2019, dated 2025)
Where “and” joins values, the source holds several entries; their conditions need not be identical. Equal values may be shown once.

How the values were obtained:
[1] = tested on: a range of cell types; settings: cited from earlier work
[2] = tested on: C2C12 mouse skeletal myoblasts; assay: Carotenoid quantification by quantitative HPLC in engineered C2C12s; format: cell-based; settings: pCrtB/I/Y C2C12s
[3] = tested on: C2C12s; assay: Eight-day cell growth by dsDNA quantitation, C2C12s; format: cell-based, mouse; settings: for Growth of engineered cells: over eight days, vs cells engineered with pGFP or pCrtB
Description: (§1) Growth and development of engineered cells—Growth of engineered BSCs and C2C12s was analyzed using a dsDNA quantitation kit (ThermoFisher #F2962) on days 1, 2, 4, 6, and 8 of culture. Cells were plated in 96-well plates for each time-point at a density of 1000 cells/well. At each time-point, media was removed from wells and plates were frozen at −80° C. After all time-points were frozen, plates were thawed to room temperature, and 100 uL of UltraPure water (ThermoFisher #10977023) was added to wells. Plates were incubated at 37° C. for one hour, re-frozen to −80° C., and re-thawed to room temperature. Wells were stained with 100 uL of Hoechst 33258 working solution. Fluorescence was measured with a Synergy H1 microplate reader (BioTek Instruments, Winooski, VT, USA) using excitation and emission filters centered at 360 and 460 nm, respectively. In parallel, a 96-well plate was seeded with a range of known cell densities, incubated for 12 hours, and measured using the same protocol to obtain a standard curve and convert fluorescence values to cell number. […]
(§2) Carotenoid optimization—Two methods were explored for optimizing carotenoid production in pCrtB/I/Y cells. […] To determine an appropriate puromycin concentration for increasing enzyme expression, engineered cells were cultured in media containing 2.5 μg/mL puromycin (1× puro), 5 μg/mL puromycin (2× puro) or 10 μg/mL puromycin (4× puro), and relative GFP expression was determined via flow cytometry as a proximate measure of enzyme expression. Briefly, cells were cultured, harvested, and GFP was analyzed using a BD FACSCalibur (BD Sciences) or Attune N×T (ThermoFisher) flow cytometer. Appropriate gating was performed using pGFP and unmodified cells as positive and negative controls, and mean fluorescent intensity was determined. Data were analyzed with the FlowJo software (v10). […]

[4] = tested on: primary bovine satellite cells (BSCs); assay: Carotenoid quantification by quantitative HPLC in engineered BSCs; format: cell-based; settings: for Effect of ketoconazole and puromycin conditioning on β-carotene: pCrtB/I/Y BSCs
[5] = tested on: BSCs; assay: Eight-day cell growth by dsDNA quantitation, BSCs; format: cell-based, bovine; settings: 5 μg/mL, pCrtB/I/Y BSCs, 8-day growth
Description: as §1
Carotenoid optimization—Two methods were explored for optimizing carotenoid production in pCrtB/I/Y cells. […] Briefly, cells were cultured, harvested, and GFP was analyzed using a BD FACSCalibur (BD Sciences) or Attune N×T (ThermoFisher) flow cytometer. […] Data were analyzed with the FlowJo software (v10). […]

[6] = tested on: bovine satellite cells (BSCs); assay: Adipogenic transdifferentiation of BSCs with free fatty acids (Oil Red O staining); format: cell-based; settings: 100 uM to 150 uM
Text: This adipogenic transdifferentiation protocol will be further optimized through a fractional factorial experimental design, testing various concentrations oleic, myristoleic, linoleic, erucic, and elaidic acid. Lipid accumulation will be verified qualitatively with Oil Red O staining and quantified with the AdipoRed plate reader assay (Lonza). Transdifferentiation of satellite cells into mature adipocytes will enable muscle and fat components of cultured meat to be generated from a single cell source throughout this proposal, thus increasing project efficiency and impact.

[7] = tested on: pCrtB/I/Y C2C12s; assay: GFP expression by flow cytometry under puromycin selection, C2C12s; format: cell-based, mouse; settings: 4× concentration (10 μg/mL)
Text: as §2, with “cells. The first focused on increasing gene expression by increasing puromycin selective pressure. The second focused on increasing levels of the carotenoid pathway precursor farnesyl pyrophosphate (FPP) by inhibiting downstream reactions in one of FPP's alternative metabolic pathways—cholesterol synthesis—using the small molecule ketoconazole (Sun et al., 2007). By exploring these two approaches, the possibility for a single approach to fail to address a rate-limiting step in carotenoid production was reduced.” for “cells.”

[8] = tested on: pCrtB/I/Y BSCs; assay: GFP expression by flow cytometry under puromycin selection, BSCs; format: cell-based, bovine
Text: as §2, with “cells. The first focused on increasing gene expression by increasing puromycin selective pressure. The second focused on increasing levels of the carotenoid pathway precursor farnesyl pyrophosphate (FPP) by inhibiting downstream reactions in one of FPP's alternative metabolic pathways—cholesterol synthesis—using the small molecule ketoconazole (Sun et al., 2007). By exploring these two approaches, the possibility for a single approach to fail to address a rate-limiting step in carotenoid production was reduced.” for “cells.”

[9] = tested on: BSCs; assay: Four-day growth of BSCs in serum-free B8 media and FGF-2 dilutions; format: cell-based, bovine; settings: four days, within B8 media
Description: Briefly, B8 media will be comprised of DMEM:F12 (1:1) supplemented with L-ascorbic acid 2-phosphate (200 ug/mL), insulin (20 ug/mL), transferrin (20 ug/mL), sodium selenite (20 ng/mL), FGF-2 (10 ng/mL), neuregulin 1 (NRG-1; 0.1 ng/mL), TGFβ-3 ([…]), and insulin-like growth factor 1 (IGF-1; 10 ng/mL). Formulations absent one or more growth factors will simultaneously generated, as will formulations lacking all growth factors but containing previously reported serum-replacements made from rapeseed peptide fractions, maitake mushroom extract, and silk-derived sericin proteins.

[10] = tested on: engineered BSCs; assay: Thiobarbituric acid reactive substances (TBARS) lipid oxidation assay, raw or heated cells; format: cell-based, bovine
Description: Lipid oxidation—To analyze the antioxidant functionality of carotenoids in cells, a thiobarbituric acid reactive substances (TBARS) assay was performed. This assay measures malondialdehyde (MDA), a byproduct of unsaturated fatty acid oxidation, and so serves as a measure of lipid oxidation in cells. As lipid oxidation is often catalyzed by the processes that generate oxidative pressure, such as cooking of meat, the TBARS assay was performed on both “raw” cells, and cells that had been heated to mimic cooking. Briefly, engineered BSCs were cultured as previously described, harvested, and counted. 1.5 million cells were aliquoted to tubes for heated or unheated analysis, washed 1× in PBS, pelleted, and the supernatant PBS was removed. Collected cell pellets were stored overnight at 4° C. The next day, samples designated for heating were incubated for 10 minutes in a 100° C. heat block, cooled to room temperature, and placed on ice. All cells (heated and unheated) were suspended in 500 μL of PBS, incubated for 2 hours on ice, and sonicated on ice using a probe sonicator (Branson, St. Louis, MO, USA) at 15% intensity for 5×15 second pulses, with 20 second intervals between pulses. Next, the TBARS assay (Cayman Chemical #700870, Ann Arbor, MI, USA) was performed with 100 μL of sonicated cell lysates, following the manufacturers protocol and determining MDA by measuring absorbance at 535 nm compared to a standard curve of known MDA concentrations. The remainders of the cell lysates were frozen at −80° C. until protein quantification was performed via Bradford assay (ThermoFisher #23200) following the manufacturers protocol. Briefly, 5 μL of cell lysates were incubated for 10 minutes with 250 uL of Coomassie reagent, and the absorbance was measured at 595 nm and compared to a BSA standard curve. TBARS measurements were normalized with protein content for each sample in order to obtain corrected cellular MDA (mg/g protein).

[11] = tested on: pCrtB/I/Y BSCs; assay: Pax7 and MHC immunostaining of engineered BSCs before and after differentiation; format: cell-based, bovine
Description: Immunofluorescence and cell characterization—To confirm the identity of isolated primary BSCs, cells were stained for Pax7 and Myosin Heavy Chain (MHC) before and after differentiation, respectively. These markers confirm the primary and terminal states of satellite cell myogenesis and therefore act to verify the nature and myogenicity of isolated cells. Proliferative cells and cells after one week of differentiation were fixed with 4% paraformaldehyde (ThermoFisher #AAJ61899AK) for 30 minutes, washed in PBS, permeabilized for 15 minutes using 0.5% Triton X (Sigma #T8787) in PBS, blocked for 45 minutes using 5% goat serum (ThermoFisher #16210064) in PBS with 0.05% sodium azide (Sigma #S2002), and washed with PBS containing 0.1% Tween-20 (Sigma #P1379). […]
Growth and development of engineered cells—Growth of engineered BSCs and C2C12s was analyzed using a dsDNA quantitation kit (ThermoFisher #F2962) on days 1, 2, 4, 6, and 8 of culture. […] Fluorescence was measured with a Synergy H1 microplate reader (BioTek Instruments, Winooski, VT, USA) using excitation and emission filters centered at 360 and 460 nm, respectively. In parallel, a 96-well plate was seeded with a range of known cell densities, incubated for 12 hours, and measured using the same protocol to obtain a standard curve and convert fluorescence values to cell number. […]

[12] = tested on: pepsin; settings: cited from earlier work
[13] = increasing levels of selection antibiotic
[14] = heated samples (10 minutes, 100° C.)

## C=C(C)[C@@H]1CCC(C)=C[C@H]1c1c(O)cc(CCCCC)cc1O [cannabidiol]
[1]
  Treatment range explored without mention of excess cell death: 1-50 uM and 0.313-15.65 ug/mL

## CC(=O)N1CCN(c2ccc(OCC3COC(Cn4ccnc4)(c4ccc(Cl)cc4Cl)O3)cc2)CC1 (stereo not drawn) [ketoconazole]
[2]
  Effect of ketoconazole and puromycin together on β-carotene: do not significantly increase β-carotene
[3]; 5 μg/mL, pCrtB/I/Y C2C12s, 8-day growth
  Effect on growth: not significantly effect growth
[4]
  Effect of ketoconazole and puromycin conditioning on β-carotene: additive increase in β-carotene
[5]
  Effect on growth: not significantly effect growth

## CCCCC/C=C\C/C=C\CCCCCCCC(=O)O [linoleic acid]
[6]
  Lipid accumulation (Oil Red O): Sparse lipid accumulation

## COc1ccc(C[C@H](N)C(=O)N[C@H]2[C@@H](O)[C@H](n3cnc4c(N(C)C)ncnc43)O[C@@H]2CO)cc1 [puromycin]
[2]
  Effect of ketoconazole and puromycin together on β-carotene: do not significantly increase β-carotene
[7]
  Effect on GFP expression: significant increase in GFP expression
[8]; 4× concentration (10 μg/mL), BSCs
  Effect on GFP expression: significant increase in GFP expression
[8]; [13]
  Increase in gene expression (as shown by GFP expression): two-fold
[4]; [13]
  Increase in carotenoid levels: ~3 fold
[4]
  Effect of ketoconazole and puromycin conditioning on β-carotene: additive increase in β-carotene

## FGF-2: fibroblast growth-factor 2
[9]
  FGF-2 concentration showing significantly improved growth vs FGF-2-free B8 media: greater than or equal to 1.25 ng/mL

## pSBbi-(CMV-CrtB-T2A-)-pur [pCrtB]
[10]; [14]
  Cellular MDA (lipid oxidation): 3.6 mg/g protein
[10]; unheated samples
  Cellular MDA (lipid oxidation): 1.7 mg/g protein

## pSBbi-(CMV-CrtB-T2A-CrtI-P2A-GFP)-pur [pCrtB/I]
[10]; [14]
  Cellular MDA (lipid oxidation): 1.7 mg/g protein
[10]; unheated samples
  Cellular MDA (lipid oxidation): 1.0 mg/g protein
[3]
  Growth of engineered cells: higher growth over eight days

## pSBbi-(CMV-CrtY-T2A-CrtB-T2A-CrtI-P2A-GFP)-pur [pCrtB/I/Y]
[11]
  Myogenic potential (Pax7 and MHC staining): maintenance of Pax7 expression and MHC-positive myotube formation
[10]; [14]
  Cellular MDA (lipid oxidation): 2.3 mg/g protein
[10]; unheated samples
  Cellular MDA (lipid oxidation): 1.1 mg/g protein
[3]
  Growth of engineered cells: higher growth over eight days

B1: V565: anti-TNFα nanobody V565 (SEQ ID NO:7) (protein)
VHH: DVQLVESGGGLVQPGGSLKLSCAASGFDFSSHWMYWVRQAPGKELEWLSEINTNGLITHYGDSVKGRFTVSRNNAANKMYLELTRLEPEDTALYYCARNQHGLNKGQGTQVTVSS
[12]
  Sensitivity to pepsin: sensitive to pepsin
  Stability in the gastric environment: largely stable in the gastric environment
